Assay results taken from patent US8785499B2 (priority 2009, dated 2014).

Legend:
ecNadD = ecNadD (Escherichia coli (strain K12), UniProt P0A752); experiment: biochemical; assay type: biochemical
baNadD = baNadD (Bacillus anthracis, UniProt C3L5T6); experiment: biochemical; assay type: biochemical
baNadD, sequence (C3L5T6 whole entry, looked up): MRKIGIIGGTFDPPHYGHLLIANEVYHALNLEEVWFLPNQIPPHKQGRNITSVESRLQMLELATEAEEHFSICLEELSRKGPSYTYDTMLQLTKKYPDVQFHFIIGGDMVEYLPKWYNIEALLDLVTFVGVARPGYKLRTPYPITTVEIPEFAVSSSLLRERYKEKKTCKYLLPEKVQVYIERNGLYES

| Structure (SMILES) | […]. coli (ecNadD) [%] | […]. anthracis (baNadD) [%] |
| --- | --- | --- |
| CC(=O)Nc1ccc(/N=C/c2ccc([N+](=O)[O-])cc2)cc1 [compound 230] | 0 | 0 |
| Cc1ccc(SCc2cc(=O)n3ncnc3[nH]2)cc1 [compound 231] | 0 | 0 |
| Nc1nc(-c2cccc(Br)c2)cs1 [compound 232] | 0 | 12 |
| N#CCc1ccc(NC(=O)/C=C/c2ccc([N+](=O)[O-])o2)cc1 [compound 233] | 0 | 8 |
| O=C(O)c1ccc(-c2ccccc2F)o1 [compound 234] | 0 | 0 |
| O=C(O)c1ccc2[nH]c(CCc3nc4cc(C(=O)O)ccc4[nH]3)nc2c1 [compound 235] | 0 | 0 |
| O=C(CSc1ccccc1)Nc1cc(C(=O)O)cc(C(=O)O)c1 [compound 236] | 0 | 0 |
| Nc1nn(S(=O)(=O)c2ccccc2)cc1-c1ccc(Cl)cc1 [compound 237] | 0 | 0 |
| O=C(O)CCC(=O)NCc1ccc(C(=O)O)cc1 [compound 238] | 0 | 14 |
| O=C(O)CCC(=O)Nc1ccc(-c2nnc(-c3ccco3)o2)cc1 [compound 239] | 0 | 11 |
| CC(=O)c1cccc(NS(=O)(=O)c2cccc(C(=O)O)c2)c1 [compound 240] | 0 | 0 |
| O=[N+]([O-])c1cccc(S(=O)(=O)Nn2cnnc2)c1 [compound 241] | 0 | 59 |
| CC(c1ccccc1)c1nnc(N)s1 (stereo not drawn) [compound 242] | 0 | 18 |
| Cc1ccc(NS(=O)(=O)c2coc(C(N)=O)c2)cc1F [compound 243] | 0 | 0 |
| CC(=O)NC(=S)Nc1ccc(Cl)c(Cl)c1 [compound 244] | 0 | 0 |
| O=C(NCc1ccc(C(=O)O)cc1)Nc1ccc(Br)cc1Cl [compound 245] | 0 | 0 |
| O=C(O)C(Cc1ccccc1)NS(=O)(=O)c1ccc2c(c1)OCCO2 (stereo not drawn) [compound 246] | 0 | 0 |
| O=C(O)CCC(=O)OC/C=C/c1ccccc1 [compound 247] | 0 | 18 |
| O=C(CSc1nc2ccccc2[nH]1)Nc1cccc(C(=O)O)c1 [compound 248] | 0 | 4 |
| Cn1c(=O)n(C)c2cc(S(=O)(=O)NCCC(=O)O)ccc21 [compound 249] | 0 | 1 |
| NNC(=O)CNC(=O)CNS(=O)(=O)c1ccc(Cl)cc1 [compound 250] | 0 | 0 |
| CSc1nc2nc(N)nc(N)c2s1 [compound 251] | 0 | 0 |
| O=[N+]([O-])c1ccc2[nH]c(CCc3nc4cc([N+](=O)[O-])ccc4[nH]3)nc2c1 [compound 252] | 0 | 0 |
| Nc1nc(-c2cc([N+](=O)[O-])cc([N+](=O)[O-])c2)n[nH]1 [compound 253] | 0 | 7 |
| Nc1[nH][nH]c(=O)c1/N=N/c1ccccc1F [compound 254] | 0 | 0 |
| OCC#CCSc1nnc(-c2cccc(Br)c2)o1 [compound 255] | 0 | 0 |
| O=C(N/N=C/c1ccc(Br)cc1)c1[nH]ncc1Br [compound 256] | 0 | 0 |

| Structure (SMILES) | […]. coli (ecNadD) [%] | […]. anthracis (baNadD) [%] |
| --- | --- | --- |
| COC(=O)c1ccc(NC(=O)CNc2ccc(C(=O)O)cc2)cc1 [compound 258] | 0 | 0 |
| Cc1ccc(C2C(C#N)=C(N)Oc3ncnc(O)c32)cc1 (stereo not drawn) [compound 259] | 0 | 0 |
| O=C(NCCNc1ccc([N+](=O)[O-])cc1)c1ccccc1Br [compound 260] | 0 | 0 |
| O=C(O)CC(NC(=O)OCc1ccccc1)c1ccccc1 (stereo not drawn) [compound 261] | 0 | 24 |
| Cc1nn(-c2ccc([N+](=O)[O-])cc2)c(Cl)c1S(=O)(=O)O [compound 262] | 0 | 5 |
| Nc1nnc(SCC(=O)Nc2ccc(Cl)c(Cl)c2)s1 [compound 263] | 0 | 0 |
| Cc1ccc([N+](=O)[O-])cc1NS(=O)(=O)c1ccc(F)cc1 [compound 264] | 0 | 0 |
| Cc1noc(C)c1S(=O)(=O)Nc1ccc(Br)cc1 [compound 265] | 0 | 4 |
| Cc1nnc(N/N=C/c2ccccc2C(=O)O)nc1O [compound 267] | 0 | 4 |
| NC(N)=NS(=O)(=O)c1ccc(NC(=O)c2cccc([N+](=O)[O-])c2)cc1 [compound 268] | 0 | 0 |
| NS(=O)(=O)c1cc(C(=O)OCC(=O)c2ccccc2)ccc1Cl [compound 269] | 0 | 22 |
| O=C(O)c1ccc(CSCc2ccccc2)o1 [compound 270] | 0 | 21 |
| COC(=O)CSc1nnc(-c2ccc(Cl)cc2Cl)o1 [compound 274] | 0 | 0 |
| O=C(O)c1ccc(-c2ccc(C(=O)O)c(C(=O)O)c2)cc1C(=O)O [compound 275] | 0 | 0 |
| O=C(O)c1ccc2nc(-c3ccc(O)cc3)sc2c1 [compound 277] | 0 | 0 |
| Nc1nnnn1/N=C/c1ccccc1 [compound 278] | 0 | 0 |
| O=C(Nc1ccc(Cl)cn1)c1cccnc1 [compound 279] | 0 | 0 |
| O=C(Cn1cnc2ccccc2c1=O)Nc1cccc(C(=O)O)c1 [compound 280] | 0 | 0 |
| CC(=O)c1ccc(NS(=O)(=O)c2ccc(N)cc2)cc1 [compound 283] | 0 | 0 |
| O=S(=O)(Nc1nc2ccccc2s1)c1ccc(Cl)s1 [compound 284] | 0 | 7 |
| Cn1c(SCC(N)=O)nnc1-c1ccc(Br)cc1 [compound 286] | 0 | 0 |
| Nc1c(C(=O)Nc2ccc(F)c(F)c2)sc2nc(-c3ccncc3)ccc12 [compound 287] | 0 | 0 |
| Nc1nc(-c2ccc(Cl)c([N+](=O)[O-])c2)n[nH]1 [compound 288] | 0 | 0 |
| O=C(CNS(=O)(=O)c1ccc(Br)s1)NCCC1=CCCCC1 [compound 289] | 0 | 4 |
| CC(=O)O/C(=C\c1cn(C(C)=O)c2ccccc12)C(=O)O [compound 291] | 0 | 0 |
| O=S(=O)(N/N=C/c1cccc(OC2CSC2)c1)c1ccccc1 [compound 292] | 0 | 0 |
| O=C(O)CSc1cccc(SCC(=O)O)c1 [compound 293] | 0 | 5 |
